# Measurements published in patent US20080214646A1 (priority 2005, published 2008).
# Several values for one entry are separate records, joined by “and”; a condition that tells them apart may be missing. Equal values may be shown once. Marks after values point to notes of the source that are not given here.
# Tests used:
# [1] = test system: carrageenan-induced rat paw edema; assay: Carrageenan-induced rat paw edema anti-inflammatory assay; assay type: in vivo; settings: for ED50: 3 h after oral administration, rat, read-out: AI activity ID50
# [2] = target: T1, ovine COX-2 (Ovis aries, UniProt P79208); assay: In vitro ovine COX-2 enzyme inhibition (EIA kit); assay type: biochemical; settings: for IC50: ovine COX-2, mean of two determinations
# T1 construct: purchased Cayman Chemical 560101
# T1 sequence (P79208 17-603): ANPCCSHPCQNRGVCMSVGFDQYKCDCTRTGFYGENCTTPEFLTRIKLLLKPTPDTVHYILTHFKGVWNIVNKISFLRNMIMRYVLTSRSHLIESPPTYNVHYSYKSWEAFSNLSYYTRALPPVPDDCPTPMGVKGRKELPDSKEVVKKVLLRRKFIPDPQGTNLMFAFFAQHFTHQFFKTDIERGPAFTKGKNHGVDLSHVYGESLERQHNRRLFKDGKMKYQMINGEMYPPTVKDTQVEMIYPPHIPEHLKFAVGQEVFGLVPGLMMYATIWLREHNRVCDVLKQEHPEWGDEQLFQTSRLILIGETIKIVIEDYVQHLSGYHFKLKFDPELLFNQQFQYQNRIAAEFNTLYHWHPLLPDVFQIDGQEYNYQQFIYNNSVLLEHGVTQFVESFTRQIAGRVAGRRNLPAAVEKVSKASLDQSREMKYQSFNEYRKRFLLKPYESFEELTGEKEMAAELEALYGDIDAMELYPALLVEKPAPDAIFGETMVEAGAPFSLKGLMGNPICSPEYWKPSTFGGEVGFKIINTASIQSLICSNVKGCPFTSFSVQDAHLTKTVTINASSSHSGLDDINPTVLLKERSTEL
# [3] = Nitric oxide release in phosphate buffer (Griess reaction); assay type: physicochemical; settings: PBS pH 7.4, 37° C., 1.5 h; relative to theoretical maximum 2 mol NO/mol
# Procedure: (§1) Nitric Oxide Release Assay: In vitro nitric oxide release, upon incubation with phosphate buffer, pig liver esterase, or guinea pig serum, was determined by quantification of nitrite produced by the reaction of nitric oxide with oxygen and water using the Griess reaction.
# [4] = target: T2, ovine COX-1 (Ovis aries, UniProt P05979); assay: In vitro ovine COX-1 enzyme inhibition (EIA kit); assay type: biochemical; settings: mean of two determinations
# T2 construct: purchased Cayman Chemical 560101
# T2 sequence (P05979 25-600): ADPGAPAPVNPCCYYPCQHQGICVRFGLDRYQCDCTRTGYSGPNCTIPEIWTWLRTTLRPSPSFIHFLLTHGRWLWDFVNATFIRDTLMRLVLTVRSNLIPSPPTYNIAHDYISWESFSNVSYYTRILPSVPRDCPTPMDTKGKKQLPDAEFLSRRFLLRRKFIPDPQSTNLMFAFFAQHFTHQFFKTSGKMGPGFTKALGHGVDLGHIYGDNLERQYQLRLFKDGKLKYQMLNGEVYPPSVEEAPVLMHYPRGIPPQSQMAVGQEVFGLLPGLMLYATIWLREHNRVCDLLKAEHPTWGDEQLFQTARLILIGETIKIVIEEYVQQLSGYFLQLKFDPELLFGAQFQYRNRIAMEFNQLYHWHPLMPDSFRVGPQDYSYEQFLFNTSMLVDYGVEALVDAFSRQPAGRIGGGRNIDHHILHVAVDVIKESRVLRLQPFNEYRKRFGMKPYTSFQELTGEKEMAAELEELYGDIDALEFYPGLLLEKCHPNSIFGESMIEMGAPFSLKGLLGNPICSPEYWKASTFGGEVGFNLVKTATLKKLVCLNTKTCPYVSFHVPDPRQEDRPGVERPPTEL
# [5] = test system: gastric ulcers; assay: Acute ulcerogenesis assay (gastric ulcer index); assay type: in vivo, rats; settings: oral, 6 h, rat
# Procedure: All drugs were suspended and administered in 1.7 mL of a 1% methylcellulose solution. Control rats received oral administration of vehicle (1.7 mL of 1.0% methylcellulose solution). Food, but not water, was removed 24 h before administration of test compounds. Six hours after oral administration of the drug, rats were euthanized in a CO2 chamber and their stomachs were removed, cut out along the greater curvature of the stomach, gently rinsed with water and placed on ice. The number and the length of ulcers were determined using a magnifier lens. […] The average overall length (in mm) of individual ulcers in each tissue was designated as the “ulcer index”. Each experimental group consisted of four rats.
# [6] = test system: pig liver esterase; settings: 1.5 h, pH 7.4
# Procedure: as §1
# [7] = equivalent amount to 250 mg of aspirin/kg
# [8] = equivalent amount to 250 mg of ibuprofen/kg
Structure (SMILES),COX-2 S.I. (COX-1 IC50/COX-2 IC50) ([2]; selectivity index),"% of Nitric oxide released, PBS (pH 7.4) [3] [%]",IC50 [4] [µM],IC50 [2] [µM],"% of Nitric oxide released, PLE [6] [%]",ED50 [1] [mg/kg],"Ulcer index [5, 7]","Ulcer index [5, 8]","fold less potent relative to the parent drug (ID50) ([1]; carrageenan-induced rat paw edema, oral)",Ulcer index ([5]; equivalent amount to 30 mg of indomethacin/kg)
"CC(C)Cc1ccc(C(C)C(=O)O)cc1 (racemic) [Ibuprofen, ibuprofen, reference compound]",,,,,,67.4,,,,
"CC(=O)Oc1ccccc1C(=O)O [Aspirin, Acetyl salicylic acid, reference compound]",0.14,,,,,129,,,,
"CC(=O)Oc1ccccc1C(=O)OCON=[N+]([O-])N1CCCC1 [Compound 11, O^2(Acetylsalicyloyloxymethyl)-1-(pyrrolidin-1-yl)diazen-1-ium-1,2-diolate]",,14.8 ± 0.1,> 100,> 100,18.5 ± 0.1,182,0 mm and 0^d mm,,,
"COc1ccc2c(c1)c(CC(=O)OCON=[N+]([O-])N1CCCC1)c(C)n2C(=O)c1ccc(Cl)cc1 [Compound 15, O^2-[2-(1-(4-Chlorobenzoyl)-5-methoxy-2-methyl-1H-indol-3-yl)acetoxymethyl]-1-(pyrrolidin-1-yl)diazen-1-ium-1,2-diolate]",,15.1 ± 0.1,> 100,> 100,16.3 ± 0.1,10.7,,,about 2.5 fold,0.7 ± 0.11^f mm
"COc1ccc2c(c1)c(CC(=O)OCON=[N+]([O-])N(C)C)c(C)n2C(=O)c1ccc(Cl)cc1 [Compound 16, O^2-[2-(1-(4-Chlorobenzoyl)-5-methoxy-2-methyl-1H-indol-3-yl)acetoxymethyl]-1-(dimethylamino)diazen-1-ium-1,2-diolate]",,14.3 ± 0.1,> 100,> 100,16.9 ± 0.1,5.9,,,,
"COc1ccc2c(c1)c(CC(=O)O)c(C)n2C(=O)c1ccc(Cl)cc1 [Indomethacin, indomethacin, reference compound]",,,,,,4.2,,,,

# Now from value to compound, other results behind:
COX-2 S.I. (COX-1 IC50/COX-2 IC50) ([2]; selectivity index),"% of Nitric oxide released, PBS (pH 7.4) [3] [%]",IC50 [4] [µM],IC50 [2] [µM],"% of Nitric oxide released, PLE [6] [%]",Structure (SMILES),ED50 [1] [mg/kg],"Ulcer index [5, 7]","Ulcer index [5, 8]","fold less potent relative to the parent drug (ID50) ([1]; carrageenan-induced rat paw edema, oral)",Ulcer index ([5]; equivalent amount to 30 mg of indomethacin/kg)
,95.2 ± 0.1,,,,"CN(C)[N+]([O-])=N[O-].[Na+] [Compound 7, O^2-Sodium 1-(N,N-dimethylamino)diazen-1-ium-1,2-diolate, reference compound]",,,,,
,15.4 ± 0.1,> 100,> 100,19.1 ± 0.1,"CC(=O)Oc1ccccc1C(=O)OCON=[N+]([O-])N(C)C [Compound 12, O^2(Acetylsalicyloyloxymethyl)-1-(N,N-dimethylamino)diazen-1-ium-1,2-diolate]",151,0 mm and 0^d mm,,,
,14.9 ± 0.1,> 100,> 100,16.3 ± 0.1,"CC(C)Cc1ccc(C(C)C(=O)OCON=[N+]([O-])N2CCCC2)cc1 (stereo not drawn) [Compound 13, O^2-[2-(4-(Isobutyl)phenyl)propanoyloxymethyl]-1-(pyrrolidin-1-yl)diazen-1-ium-1,2-diolate]",66.8,,0 mm and 0^e mm,,
,16.1 ± 0.1,> 100,> 100,17.3 ± 0.1,"CC(C)Cc1ccc(C(C)C(=O)OCON=[N+]([O-])N(C)C)cc1 (stereo not drawn) [Compound 14, O^2-[2-(4-(Isobutyl)phenyl)propanoyloxymethyl]-1-(N,N-dimethylamino)diazen-1-ium-1,2-diolate]",62.3,,0 mm and 0^e mm,,
,94.0 ± 0.1,,,,"[Na+].[O-]N=[N+]([O-])N1CCCC1 [O^2-sodium 1-(pyrrolidin-1-yl)diazen-1-ium-1,2-diolate, reference compound]",,,,,
